From patent US20080207738A1, “DRUG COMBINATIONS TO TREAT DRUG RESISTANT TUMORS” (priority 2007, published 2008)
Read-outs that look alike come from different tables or passages of the source.

How the values were obtained:
MCF-7/ADR cells = assay: MTT cell viability, MCF-7/ADR cells; assay type: cell-based, human; settings: 72 h, CCcompound104 5 μg/ml, EA 60 μM, CCcompound26/CCcompound3/CCcompound19 50 μM, alone or combined
Description: MCF/ADR cells were selected by incubating the parent MCF-7 with toxic concentrations (up to 10 μM) of adriamycin (doxorubicin). The selected drug resistant cells express both MDR1 and MRP1 among other molecular alterations as reviewed earlier [Kiss, Z., Tomono, M. and Anderson, W. B. (1994), “Phorbol ester selectively stimulates the phospholipase D-mediated hydrolysis of phosphatidylethanolamine in multidrug-resistant MCF-7 human breast carcinoma cells,” Biochem. J., 302, 649-654]. […] Ethacrynic acid (EA) alone, used at 60 μM concentration, decreased cell viability by about 24%, while CCcompound104 and EA in combination had 70% inhibitory effects (Table 7). In this cell line CCcompound104 and EA decreased cell viability synergistically.

CLL cells = assay: cells; settings: Homo sapiens, CLL cell; for cytotoxicity at 5 µM: 72 h, CCcompound3 5 μM, alone or combined
Description: Heparinized peripheral-blood samples were obtained from chronic lymphocytic leukemia patients with more than 70% malignant cells after informed consent, in accordance with the Declaration of Helsinki. The blood samples (10-ml) were diluted 1:1 with cold phosphate buffered saline (PBS; 0.135 M NaCl, 2.7 mM KCl, 1.5 mM KH2PO4, 8 mM Na2HPO4 [pH 7.4]) and layered onto Ficoll-Hypaque (8-ml, specific gravity, 1.086; Life Technologies, Grand Island, N.Y.). Then, the blood was centrifuged at 433 g for 20 min, and mononuclear cells were removed from the interphase. Cells were washed twice with cold PBS and after each centrifugation step the pelleted cells were resuspended in 10-ml RPMI 1640 supplemented with 10% fetal bovine serum (inactivated for 30 min at 56° C.). A Coulter channelyzer (Coulter Electronics, Hialeah, Fla.) was used to determine the cell number. Then the number of cells was adjusted to 1×10^7 cells per 1 ml before using them for the experiments.
(§1) For the determination of relative number of viable cells before and after treatments, in most cases the MTT assay was used. This calorimetric assay is based on the ability of living cells, but not dead cells, to reduce 3-(4, 5-dimethyl thiazol-2-yl)-2, 5-diphenyltetrazolium bromide [Carmichael, J, De Graff, W. G., Gazdar, A. F., Minna, J. D. and Mitchell, J. B. (1987), “Evaluation oftetrazolium-based semiautomated calorimetric assay: Assessment of chemosensitivity testing,” Cancer Res., 47, 936-942]. For this assay, cells were plated in 96-well plates (10,000-30,000 cells in case of cultured cells, 100,000 cells in case of healthy lymphocytes, and 200,000 cells in case of chronic lymphocytic leukemia or non-Hodgkin lymphocytes) in the respective incubation media. After a 24-h resting period, the cells were treated with the test agents and then incubated (in CO2 incubator under humidified atmosphere) for 72 hours (final incubation volume, 150 μl). The MTT assay was performed both with the untreated and treated cell cultures at the conclusion of the incubation. Often, the MTT assay also was performed at the start of treatments to allow assessment of proliferation rates in the control and treated cell cultures. All data presented are the average of 4 incubations (in 4 separate wells) with the same cell population.

[1] = tested on: lymphoma cells derived from non-Hodgkin patients; assay: MTT cell viability, lymphoma cells from non-Hodgkin patients; assay type: cell-based; settings: Homo sapiens, 72 h, CCcompound104 5 μg/ml, CCcompound26 1 μM, read-out: Inhibition (%) of viability
Description: Lymphoma cells derived from two non-Hodgkin lymphoma patients were treated with EA (15 μM) in the absence or presence of CCcompound104 (5 μg/ml)+CCcompound26 (1 μM) for 72 hours. […] However, the 3 agents together decreased the number of viable cells by 91 and 97%, respectively (Table 13).

MCF-7 cells = assay: Cell viability, MCF-7 cells; assay type: cell-based; settings: Homo sapiens, MCF7, 72 h, read-out: decrease of cell viability
Description: The MCF-7 cells were isolated from a human mammary tumor. After combined treatments with 5 μg/ml of CCcompound104 and 1 μM of CCcompound26 for 72 hours, the viability of these cells was decreased by 42%. EA (30 μM) alone decreased cell viability by 32%, while the 3 agents together decreased cell viability about 100% (i.e. practically no viable cells remained after the treatments).

in vitro = settings: human
Text: as §1
Peripheral lymphocytes are known to be very sensitive to chemotherapy and this sensitivity often limits the dose of chemotherapy that can be employed. In this series of experiments, the combined effects of CCcompound104 alone or in combination with CCcompound26 or CCcompound3 were determined on the viability of peripheral lymphocytes to establish doses that reduce cell viability less than 50%. As in previous experiments, the treatments were performed for 72 hours.

[2] = tested on: parent L5178 mouse T-cell lymphoma cells; assay: MTT cell viability, parent L5178 cells; settings: L5178Y, 30,000 cells per well, 72 h
Text: as §1
Parent L5178 cells were seeded at 10,000 cells per well in 96-well plates and then incubated for 72 hours in the absence or presence of CCcompound104 (1 or 5 μg/ml) and various concentrations of CCcompound26 as indicated in Table 5.
(§2) Epirubicin, like doxorubicin and other antracyclins, is an MDR1 substrate. The goal of this experiment was to use epirubicin as a model compound to determine if in L5178/MDR1 cells CCcompound104 also can enhance the effects of MDR1 substrate anti-cancer agents other than CCcompound26 and other thioxanthene or thioxanthone CC compounds. The parent and MDR1 expressing cells were seeded at 30,000 cells per well in 96-well microplates and after a 24-h resting period treated with increasing concentrations of epirubicin n in the absence or presence of 5 μg/ml of CCcompound104 for 72 hours.

[3] = tested on: L5178/MDR1 mouse T-cell lymphoma cells; assay: cells; settings: mouse, 72 h
Text: as §1
L5178/MDR1 cells were seeded at 10,000 cells per well in 96-well plates and then incubated for 72 hours in the absence or presence of 5 μg/ml of CCcompound104 and various concentrations of CCcompound26 as indicated in Table 6.
as §2

C=C(CC)C(=O)c1ccc(OCC(=O)O)c(Cl)c1Cl [EA, ethacrynic acid]
cytotoxicity at 60 µM (MCF-7/ADR cells; Homo sapiens, NCI/ADR-RES, read-out: Inhibition (%) of viability): ~24%
cytotoxicity at 30 µM (CLL cells; read-out: Inhibition (%) of viability, resistant CLL cells, patient 17, EA 30 μM, CCcompound104 5 μg/ml, CCcompound26 1 μM): 31.8%
cytotoxicity at 30 µM (CLL cells; read-out: Inhibition (%) of viability, resistant CLL cells, patient 18, EA 30 μM, CCcompound104 5 μg/ml, CCcompound26 1 μM): 38.3%
cytotoxicity at 30 µM (CLL cells; read-out: decrease of viability of resistant CLL cells, over patients 17 and 18, EA 30 μM, CCcompound104 5 μg/ml, CCcompound26 1 μM): 31 to 38%
cytotoxicity at 15 µM ([1]; non-Hodgkin patient 1, EA 15 μM): 36.8%
cytotoxicity at 15 µM ([1]; non-Hodgkin patient 2, EA 15 μM): 42.4%
cytotoxicity at 15 µM ([1]; non-Hodgkin patient 3, EA 15 μM): 48.2%
cytotoxicity at 15 µM ([1]; non-Hodgkin patient 4, EA 15 μM): 53.1%
cytotoxicity at 30 µM (MCF-7 cells): 32%

CC[N+](C)(CC)CCOCc1ccc2sc3ccccc3c(=O)c2c1 [CCcompound3]
Inhibition (%) of viability (MCF-7/ADR cells): 20.0%
cytotoxicity at 72 h, 1 μM (in vitro; Inhibition (%) of viability): 0%
cytotoxicity at 72 h, 50 μM (in vitro; decrease of viability of healthy lymphocytes): 6%
cytotoxicity at 5 µM (CLL cells; read-out: Inhibition (%) of viability, CLL patient 8, CCcompound104 5 μg/ml): 7.8%
cytotoxicity at 5 µM (CLL cells; read-out: Inhibition (%) of viability, CLL patient 9, CCcompound104 5 μg/ml): 11.1%
cytotoxicity at 5 µM (CLL cells; read-out: Inhibition (%) of viability, CLL patient 10, CCcompound104 5 μg/ml): 32%
cytotoxicity at 5 µM (CLL cells; read-out: Inhibition (%) of viability, CLL patient 11, CCcompound104 5 μg/ml): 33.3%
cytotoxicity at 5 µM (CLL cells; read-out: Inhibition (%) of viability, CLL patient 12, CCcompound104 5 μg/ml): 26%
cytotoxicity at 5 µM (CLL cells; read-out: Inhibition (%) of viability, CLL patient 13, CCcompound104 5 μg/ml): 12.5%
cytotoxicity at 5 µM (CLL cells; read-out: Inhibition (%) of viability, CLL patient 14, CCcompound104 5 μg/ml): 36.3%
cytotoxicity at 5 µM (CLL cells; read-out: Inhibition (%) of viability, CLL patient 15, CCcompound104 5 μg/ml): 3.3%
cytotoxicity at 5 µM (CLL cells; read-out: Inhibition (%) of viability, CLL patient 16, CCcompound104 5 μg/ml): 50.1%
cytotoxicity at 5 µM (CLL cells; read-out: Inhibition (%) of viability, CLL patient 17, CCcompound104 5 μg/ml): 0%
cytotoxicity at 5 µM (CLL cells; read-out: Inhibition (%) of viability, CLL patient 18, CCcompound104 5 μg/ml): 6%
cytotoxicity at 5 µM (CLL cells; read-out: Inhibition (%) of viability, CLL patient 19, CCcompound104 5 μg/ml): 9.2%
cytotoxicity at 5 µM (CLL cells; read-out: Inhibition (%) of viability, CLL patient 20, CCcompound104 5 μg/ml): 0%

COc1cccc2c1C(=O)c1c(O)c3c(c(O)c1C2=O)C[C@@](O)(C(=O)CO)C[C@@H]3O[C@H]1C[C@H](N)[C@@H](O)[C@H](C)O1 [Epirubicin, epirubicin, reference compound]
Inhibition (%) of viability ([2]; Epirubicin 0.156 μg/ml without or with CC104 5 μg/ml): 6.1%
Inhibition (%) of viability ([2]; Epirubicin 0.312 μg/ml without or with CC104 5 μg/ml): 41.5%
Inhibition (%) of viability ([2]; Epirubicin 0.625 μg/ml without or with CC104 5 μg/ml): 98.6%
Inhibition (%) of viability ([2]; Epirubicin 1.250 μg/ml without or with CC104 5 μg/ml): 100%
Inhibition (%) of viability ([2]; Epirubicin 2.500 μg/ml without or with CC104 5 μg/ml): 100%
Inhibition (%) of viability ([2]; Epirubicin 5.000 μg/ml without or with CC104 5 μg/ml): 100%
Inhibition (%) of viability ([3]; 0.156 µg/ml): 0%
Inhibition (%) of viability ([3]; 0.312 μg/ml): 0%
Inhibition (%) of viability ([3]; 0.625 μg/ml): 0%
Inhibition (%) of viability ([3]; 1.25 μg/ml): 0%
Inhibition (%) of viability ([3]; 2.5 μg/ml): 12.2%
Inhibition (%) of viability ([3]; 5 μg/ml): 32.4%

C[N+](C)(C)CCC=C1c2ccccc2Sc2ccccc21.[I-] [CCcompound19, N,N,N-trimethyl-3-(9H-thioxanthen-9-ylidene)-propan-1-aminium iodide]
Inhibition (%) of viability (MCF-7/ADR cells): 20.2%
